Experimental data taken from patent US12173088B2, “Anti-microbial peptides” (priority 2018, dated 2024).
In brackets after ≈: the same amount, converted by molar mass. Square brackets hold non-standard residues; d marks the D form. Peptide text beside a SMILES is read from it.

Legend:
E. coli ampC E416-7 = assay type: cell-based, Escherichia coli; details: Table 7
Text: The bacterial strains used include the Gram-positive strains Staphylococcus aureus USA300 LAC, S. epidermidis 1457, and Bacillus subtilis 168, as well as the Gram-negative isolates Escherichia coli K12 and Acinetobacter baumannii B2367-12. Additional, drug resistance strains include Gram-positive Enterococcus faecium V286-17 (VRE) and S. aureus M838-17 (MRSA) and Gram-negative E. coli E423-17, E. coli E416-17 (ampC), and P. aeruginosa E411-17. Bacteria were cultivated in tryptic soy broth (TSB) (BD Bioscience, MD).
The antibacterial activity of peptides was evaluated using a standard broth microdilution protocol with minor modifications as described (Mishra, et al. (2012) J. Am. Chem. Soc., 134:12426-12429). In brief, logarithmic phase bacterial cultures (i.e., optical density at 600 nm≈0.5) were diluted to OD600 0.001 and partitioned into a 96-well polystyrene microplate at 90 μL per well. After treatment with 10 μL of peptide solutions two fold diluted to various concentrations, microplates were incubated at 37° C. overnight and read on a ChroMate® 4300 Microplate Reader at 630 nm (GMI, Ramsey, MN). […] To study the influence of medium conditions on the antimicrobial activity of peptides against S. aureus USA300, up to 200 mM sodium chloride (NaCl), 2 mM of calcium chloride, 5-10% of human serum, mouse plasma, fluid, or supernatants of tissue homogenates were included into the assays.

Hemolytic assay = assay type: cell-based, human; details: human, human red blood cells, 2% (v/v)
Summary of the method: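 HL50 marks the peptide level lysing half of a 2% (v/v) suspension of washed human erythrocytes after 1 h at 37 °C. Released hemoglobin measured at 545 nm, scaled between PBS (0%) and Triton X-100 (2% or 1%; 100%). Selectivity index computed as HL50 over MIC.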

[1] = test system: trypsin, chymotrypsin, S. aureus V8 protease, Proteinase K
Description: Briefly, a solution (100 μL) of peptide/protease molar ratio, 40:1 was made in 10 mM PBS buffer (pH 8.0) and was incubated at 37° C. Aliquots (10 μL) of the reaction solutions were taken after 1, 3 and 6 days and immediately mixed with 20 μL of 2×SDS loading buffer and boiled in a water bath to stop the reaction. For the SDS gel analysis, 10 μL of each sample was loaded to the well of a 5% stacking/18% resolving tricine gel and run at a constant current of 35 mA.

E. coli E423-17 = experiment: microbe, parasite or virus in culture; assay type: cell-based, Escherichia coli; details: E423-17; read-out: MIC E. coli E423-17
Summary of the method: (§1)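 Peptides were serially diluted two-fold against bacteria grown in tryptic soy broth to log phase (OD600 ≈0.5), then seeded at OD600 0.001. Plates were held overnight at 37° C and read at 630 nm. USA300 was also tested at pH 6.8, 7.2 and 8.0, with 150 mM NaCl or 5-10% serum, plasma or peritoneal fluid.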

E. faecium V286-17 (VRE) = experiment: microbe, parasite or virus in culture; assay type: cell-based, Enterococcus faecium; details: V286-17 (VRE)
Summary of the method: as §1

P. aeruginosa E411-17 = experiment: microbe, parasite or virus in culture; assay type: cell-based, Pseudomonas aeruginosa; details: E411-17; read-out: MIC P. aeruginosa E411-17
Summary of the method: as §1

K. pneumoniae E406-17 = experiment: microbe, parasite or virus in culture; assay type: cell-based, Klebsiella pneumoniae; details: E406-17; read-out: MIC K. pneumoniae E406-17
Summary of the method: (§2)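 Broth microdilution in tryptic soy broth: log-phase cultures (OD600 ≈0.5) diluted to OD600 0.001, given two-fold peptide dilutions, incubated overnight at 37° C. Growth read at 630 nm.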

E. coli ATCC 25922 = assay type: cell-based, Escherichia coli; details: ATCC 25922
Summary of the method: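 Peptides, serially diluted two-fold, were incubated overnight at 37 °C with E. coli ATCC 25922 from log-phase cultures adjusted to OD600 0.001. Turbidity at 630 nm served as the read-out in this broth microdilution format.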

S. aureus USA300 [2] = experiment: microbe, parasite or virus in culture; assay type: cell-based, Staphylococcus aureus
Summary of the method: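 Broth microdilution: log-phase cultures in tryptic soy broth diluted to OD600 0.001, exposed to two-fold diluted peptides at 37° C overnight, growth read at 630 nm. Medium effects on S. aureus USA300 tested with up to 200 mM NaCl, 2 mM CaCl2, 5-10% human serum, mouse plasma, fluids or tissue homogenate supernatants.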

S. aureus M838-17 (MRSA) = experiment: microbe, parasite or virus in culture; assay type: cell-based, Staphylococcus aureus; details: M838-17; read-out: MIC S. aureus M838-17 (MRSA)
Summary of the method: as §1

P. aeruginosa PAO1 = assay type: cell-based, Pseudomonas aeruginosa; details: PAO1
Summary of the method: as §2

S. aureus USA300 [3] = details: starting template; cited from earlier work

Row | Compound | MIC E. coli ampC E416-7 (E. coli ampC E416-7) [µM] | HC50 at 1 h (Hemolytic assay) [µM] | Protease stability [1] | MIC (E. coli E423-17) [µM] | MIC E. faecium V286-17 (VRE) (E. faecium V286-17 (VRE)) [µM] | MIC (P. aeruginosa E411-17) [µM] | MIC (K. pneumoniae E406-17) [µM] | MIC EC (E. coli ATCC 25922) (E. coli ATCC 25922) [µM] | MIC (S. aureus USA300 [2]; USA300) [µM] | MIC (S. aureus USA300 [2]; USA300, pH 6.8) [µM] | MIC (S. aureus USA300 [2]; USA300, pH 7.4) [µM] | MIC (S. aureus USA300 [2]; USA300, pH 8) [µM] | MIC (S. aureus M838-17 (MRSA)) [µM] | MIC PA (P. aeruginosa PAO1) (P. aeruginosa PAO1) [µM] | MIC against MRSA (S. aureus USA300 [3]) [µM]
1 | CC(C)C[C@@H](NC(=O)[C@@H](CC(C)C)NC(=O)[C@@H](CCCCN)NC(=O)[C@@H](CC(C)C)NC(=O)CNC(=O)[C@@H](CC(C)C)NC(=O)[C@@H](CO)NC(=O)[C@@H](CC(C)C)NC(=O)[C@@H](CC(C)C)NC(=O)[C@@H](CC(C)C)NC(=O)[C@@H](CCCCN)NC(=O)[C@@H](CC(C)C)NC(=O)CN)C(N)=O [DFT561d, GLKLLLSLGLKLL] (H-G[dL][dK][dL][dL][dL][dS][dL]G[dL][dK][dL][dL]-NH2; N-terminus and C-terminus assumed) | >50 | > 300 | resistant to proteases | >50 | 3.1 to 6.25 | >50 | >50 | >25 | 3.1 (≈ 4.28 µg/mL) | 3.1 (≈ 4.28 µg/mL) | 1.6 (≈ 2.21 µg/mL) | 1.6 (≈ 2.21 µg/mL) | 3.1 (≈ 4.28 µg/mL) | >25 | 
2 | temporin-SHf |  |  |  |  |  |  |  |  |  |  |  |  |  |  | 25
